Drawing on patent US20250361230A1, “LATS Inhibitors and Uses Thereof” (The USA, as Represented by the Secretary, Dept. of Heath …, priority 2022, published 2025), this text covers IC50 for 13 compounds.

Type in all cases: biochemical
One assay deals with T1, LATS2 (Homo sapiens, UniProt Q9NRM7).
T1 sequence (Q9NRM7 1-1088): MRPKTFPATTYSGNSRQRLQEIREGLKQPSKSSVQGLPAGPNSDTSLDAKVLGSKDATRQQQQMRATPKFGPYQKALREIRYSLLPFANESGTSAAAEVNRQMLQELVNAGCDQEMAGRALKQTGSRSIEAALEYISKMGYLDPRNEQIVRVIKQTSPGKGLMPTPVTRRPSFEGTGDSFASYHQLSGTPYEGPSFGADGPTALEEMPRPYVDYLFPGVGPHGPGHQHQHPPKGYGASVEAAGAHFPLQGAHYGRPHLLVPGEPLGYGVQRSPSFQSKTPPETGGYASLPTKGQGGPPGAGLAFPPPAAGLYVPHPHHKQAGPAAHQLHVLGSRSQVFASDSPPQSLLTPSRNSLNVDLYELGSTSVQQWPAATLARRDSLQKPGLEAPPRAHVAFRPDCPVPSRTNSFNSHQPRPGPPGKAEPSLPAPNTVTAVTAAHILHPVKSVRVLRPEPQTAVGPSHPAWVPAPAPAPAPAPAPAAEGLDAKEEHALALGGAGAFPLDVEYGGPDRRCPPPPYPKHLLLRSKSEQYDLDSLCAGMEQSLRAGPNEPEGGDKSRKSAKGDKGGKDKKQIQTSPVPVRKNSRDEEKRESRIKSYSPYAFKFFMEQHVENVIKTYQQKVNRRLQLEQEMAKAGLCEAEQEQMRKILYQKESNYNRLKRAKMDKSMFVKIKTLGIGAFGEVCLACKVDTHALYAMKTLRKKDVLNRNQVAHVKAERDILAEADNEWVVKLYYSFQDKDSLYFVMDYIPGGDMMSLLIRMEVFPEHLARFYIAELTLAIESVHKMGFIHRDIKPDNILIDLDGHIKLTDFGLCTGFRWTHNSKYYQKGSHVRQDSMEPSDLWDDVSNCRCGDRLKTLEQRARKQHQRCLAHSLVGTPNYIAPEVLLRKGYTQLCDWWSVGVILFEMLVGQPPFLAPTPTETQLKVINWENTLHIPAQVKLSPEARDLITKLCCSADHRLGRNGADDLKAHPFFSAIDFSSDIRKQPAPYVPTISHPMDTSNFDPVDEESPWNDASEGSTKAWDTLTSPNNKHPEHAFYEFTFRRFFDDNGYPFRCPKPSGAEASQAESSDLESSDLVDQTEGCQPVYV
Put plainly: RBC HotSpot kinase assay (33P-ATP, P81 filter-binding), LATS2. The conditions noted are these: Table 28, biochemical kinase assay; read-out: LATS2 IC50. Here is the method:
(§1) Biochemical kinase inhibitory data was obtained for various exemplary compounds prepared according to the above.
(§2) The reagents used are as follows: Base Reaction buffer; 20 mM Hepes (pH 7.5), 10 mM MgCl2, 1 mM EGTA, 0.01% Brij35, 0.02 mg/ml BSA, 0.1 mM Na3VO4, 2 mM DTT, […]. Required cofactors were added individually to each kinase reaction.
(§3) The reaction procedure was as follows: • 1) Substrates were prepared in freshly prepared Reaction Buffer. • 2) Any required cofactors were delivered to the substrate solution above. • 3) Kinase was delivered into the substrate solution and gently mixed. • 4) Compounds were delivered in 100% DMSO into the kinase reaction mixture by Acoustic technology (Echo550; nanoliter range), followed by incubation for 20 min at room temp. • 5) ^33P-ATP was delivered into the reaction mixture to initiate the reaction. • 6) The mixture was incubated for 2 hours at room temperature. • 7) Kinase activity was detected by P81 filter-binding method.
(§4) Using the above functional assay, the inhibitory activity of the compounds for LATS1/2 versus AKT was characterized. The assays were typically run in a 10-point curve, in singlet, to produce a titration curve from which an IC50 value was obtained.
(§5) The reagents used are as follows: Base Reaction buffer; 20 mM Hepes (pH 7.5), 10 mM MgCl2, 1 mM EGTA, 0.01% Brij35, 0.02 mg/ml BSA, 0.1 mM Na3VO4, 2 mM DTT, 1% DMSO. Required cofactors were added individually to each kinase reaction.
(§6) Biochemical kinase inhibitory data was obtained for various exemplary compounds prepared according to the above in accordance with the protocols described in Examples 4 and 8. All biological activities are IC50, in nM.

A further assay deals with T2, LATS1 (Homo sapiens, UniProt O95835).
T2 sequence (O95835 1-1130): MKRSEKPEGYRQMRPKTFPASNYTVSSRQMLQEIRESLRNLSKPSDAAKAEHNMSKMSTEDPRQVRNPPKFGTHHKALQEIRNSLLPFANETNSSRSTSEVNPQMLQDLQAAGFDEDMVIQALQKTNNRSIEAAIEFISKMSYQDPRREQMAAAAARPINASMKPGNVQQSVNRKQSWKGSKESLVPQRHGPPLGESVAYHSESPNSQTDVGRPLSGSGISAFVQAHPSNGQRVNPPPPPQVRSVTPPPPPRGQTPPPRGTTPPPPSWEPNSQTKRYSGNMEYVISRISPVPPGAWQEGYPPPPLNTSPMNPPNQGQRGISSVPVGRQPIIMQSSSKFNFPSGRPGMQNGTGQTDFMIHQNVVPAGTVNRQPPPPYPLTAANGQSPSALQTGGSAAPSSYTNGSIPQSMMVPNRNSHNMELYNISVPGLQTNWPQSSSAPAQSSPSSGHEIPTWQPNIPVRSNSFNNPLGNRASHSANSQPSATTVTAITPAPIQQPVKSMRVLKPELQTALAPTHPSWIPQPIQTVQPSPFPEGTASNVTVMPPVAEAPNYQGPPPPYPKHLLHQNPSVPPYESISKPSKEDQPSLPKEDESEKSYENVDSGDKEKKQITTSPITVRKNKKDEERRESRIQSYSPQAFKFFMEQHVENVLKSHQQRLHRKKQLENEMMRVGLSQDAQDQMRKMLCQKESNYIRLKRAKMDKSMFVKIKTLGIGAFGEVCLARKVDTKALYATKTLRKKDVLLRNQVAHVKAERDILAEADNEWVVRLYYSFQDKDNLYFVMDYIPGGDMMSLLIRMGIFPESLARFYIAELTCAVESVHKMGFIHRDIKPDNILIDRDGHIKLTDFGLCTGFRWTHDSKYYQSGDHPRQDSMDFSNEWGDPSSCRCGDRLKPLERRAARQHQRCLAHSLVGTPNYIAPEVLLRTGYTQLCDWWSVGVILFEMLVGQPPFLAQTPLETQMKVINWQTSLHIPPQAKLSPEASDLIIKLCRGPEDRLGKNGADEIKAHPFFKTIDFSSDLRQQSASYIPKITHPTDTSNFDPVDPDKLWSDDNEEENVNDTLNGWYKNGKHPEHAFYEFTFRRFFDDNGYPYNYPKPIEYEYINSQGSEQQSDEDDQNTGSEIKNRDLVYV
Put plainly: RBC HotSpot kinase assay (33P-ATP, P81 filter-binding), LATS1. The note with it: Table 28, biochemical kinase assay; read-out: LATS1 IC50. Here is the method:
as §1, §2, §3, §4, §5, §6

The next assay has as its target AKT (Homo sapiens, UniProt P31749). Description: RBC HotSpot kinase assay (33P-ATP, P81 filter-binding), AKT. The conditions noted are these: Table 28, biochemical kinase assay; read-out: AKT IC50. Here is the method: as §1, §2, §3, §4, §5, §6

SMILES strings stand for the structures.

Chain of AKT (P31749 whole entry): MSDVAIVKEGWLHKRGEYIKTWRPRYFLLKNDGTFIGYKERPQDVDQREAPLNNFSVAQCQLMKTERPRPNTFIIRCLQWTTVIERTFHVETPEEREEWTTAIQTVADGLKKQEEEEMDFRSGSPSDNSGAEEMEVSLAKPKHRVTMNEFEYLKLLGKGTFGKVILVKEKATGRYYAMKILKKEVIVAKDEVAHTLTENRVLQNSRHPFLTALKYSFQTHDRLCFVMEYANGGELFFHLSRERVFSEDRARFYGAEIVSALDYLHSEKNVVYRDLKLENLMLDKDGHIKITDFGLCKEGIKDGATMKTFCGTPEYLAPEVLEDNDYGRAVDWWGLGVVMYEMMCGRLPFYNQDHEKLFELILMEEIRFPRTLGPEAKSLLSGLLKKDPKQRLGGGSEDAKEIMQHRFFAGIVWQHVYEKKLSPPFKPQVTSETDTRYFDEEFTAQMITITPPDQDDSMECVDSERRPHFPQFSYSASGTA

Regarding `Cc1cc(-c2ccnc3[nH]cc(F)c23)ccc1[C@@]1(O)[C@H](C)CN(C2CCOCC2)C[C@@H]1C` [Compound 27, (3S,4s,5R)-4-(4-(3-fluoro-1H-pyrrolo[2,3-b]pyridin-4-yl)-2-methylphenyl)-3,5-dimethyl-1-(tetrahydro-2H-pyran-4-yl)piperidin-4-ol], the IC50 (as a rule, the concentration that gives 50% inhibition) at LATS2 turned out to be 2.2 nM; on LATS1, 1.7 nM; on AKT it was 47.9 nM.
In the case of `Cc1cc(-c2ccnc3[nH]cc(F)c23)cc(F)c1C1(O)[C@H](C)CN(C2CCOCC2)C[C@@H]1C` (stereo partly drawn) [Compound 33, (3S,5R)-4-(2-fluoro-4-(3-fluoro-1H-pyrrolo[2,3-b]pyridin-4-yl)-6-methylphenyl)-3,5-dimethyl-1-(tetrahydro-2H-pyran-4-yl)piperidin-4-ol], the IC50 at LATS2 worked out at 1.9 nM; on LATS1 it was 3.4 nM; on AKT it was 474 nM.
The like results for `Cc1cc(-c2ccnc3[nH]cc(F)c23)cc(F)c1C1(O)[C@H](C)CN(C2CCOC2)C[C@@H]1C` (stereo partly drawn) [Compound 34, (3S,5R)-4-(2-fluoro-4-(3-fluoro-1H-pyrrolo[2,3-b]pyridin-4-yl)-6-methylphenyl)-3,5-dimethyl-1-(tetrahydrofuran-3-yl)piperidin-4-ol] were, in that order, 8.3 nM, 14.3 nM and 908 nM.
The like results for `C[C@@H]1CN(C2CCS(=O)(=O)CC2)C[C@H](C)C1(O)c1cnc(-c2ccnc3[nH]cc(F)c23)cc1F` (stereo partly drawn) [Compound 35, 4-((3S,5R)-4-(4-fluoro-6-(3-fluoro-1H-pyrrolo[2,3-b]pyridin-4-yl)pyridin-3-yl)-4-hydroxy-3,5-dimethylpiperidin-1-yl)tetrahydro-2H-thiopyran 1,1-dioxide] were, in that order, 63.4 nM, 99.4 nM and 2080 nM.
Turning to `C[C@@H]1CN(C2COC2)C[C@H](C)C1(O)c1cnc(-c2ccnc3[nH]cc(F)c23)cc1F` (stereo partly drawn) [Compound 36, (3S,5R)-4-(4-fluoro-6-(3-fluoro-1H-pyrrolo[2,3-b]pyridin-4-yl)pyridin-3-yl)-3,5-dimethyl-1-(oxetan-3-yl)piperidin-4-ol], the IC50 at LATS2 is 79.6 nM; on LATS1 it was 98.5 nM; on AKT, above 1000 nM.
In the case of `C[C@@H]1CN(C)C[C@H](C)[C@@]1(O)c1c(F)cc(-c2ccnc3[nH]cc(F)c23)cc1F` [Compound 37, (3S,4s,5R)-4-(2,6-difluoro-4-(3-fluoro-1H-pyrrolo[2,3-b]pyridin-4-yl)phenyl)-1,3,5-trimethylpiperidin-4-ol], the IC50 on LATS2 was 8.6 nM; at LATS1, 10.1 nM; at AKT it was 477 nM.
The like results for `C[C@@H]1CN(C)C[C@H](C)[C@@]1(O)c1ccc(-c2ccnc3[nH]ccc23)cc1` [Compound 38, (3R,4s,5S)-4-(4-(1H-pyrrolo[2,3-b]pyridin-4-yl)phenyl)-1,3,5-trimethylpiperidin-4-ol] were, in that order, 27 nM, 28 nM and 181 nM.
The like results for `C[C@@H]1CN(C)C[C@H](C)[C@@]1(O)c1ccc(-c2ccnc3[nH]ccc23)nc1` [Compound 40, (3R,4s,5S)-4-(6-(1H-pyrrolo[2,3-b]pyridin-4-yl)pyridin-3-yl)-1,3,5-trimethylpiperidin-4-ol] were, in that order, 293 nM, 99 nM and 1540 nM.
Regarding `C[C@@H]1CN(C)C[C@H](C)[C@@]1(O)c1ccc(-c2ccnc3[nH]cc(F)c23)cc1F` [Compound 42, (3R,4s,5S)-4-(2-fluoro-4-(3-fluoro-1H-pyrrolo[2,3-b]pyridin-4-yl)phenyl)-1,3,5-trimethylpiperidin-4-ol], the IC50 at LATS2 was 6.7 nM; at LATS1 it was 9.7 nM; at AKT, 159 nM.
With `Cc1cc(-c2ccnc3[nH]cc(F)c23)ccc1[C@@]1(O)[C@H](C)CN(C)C[C@@H]1C` [Compound 43, (3R,4s,5S)-4-(4-(3-fluoro-1H-pyrrolo[2,3-b]pyridin-4-yl)-2-methylphenyl)-1,3,5-trimethylpiperidin-4-ol], the results for the 50% inhibitory concentration (IC50) at LATS2, on LATS1 and at AKT were 2.9 nM, 3.2 nM and 63.5 nM, respectively.
For the compound `Cc1cc(-c2ccnc3[nH]cc(F)c23)ncc1[C@@]1(O)[C@H](C)CN(C)C[C@@H]1C` [Compound 44, (3R,4s,5S)-4-(6-(3-fluoro-1H-pyrrolo[2,3-b]pyridin-4-yl)-4-methylpyridin-3-yl)-1,3,5-trimethylpiperidin-4-ol], the values for the IC50 on LATS2, at LATS1 and on AKT were 19.6 nM, 8.9 nM and 1610 nM, respectively.
The like results for `CC(C)N1C[C@@H](C)[C@](O)(c2c(F)cc(-c3ccnc4[nH]cc(F)c34)cc2F)[C@@H](C)C1` [Compound 47, (3R,4s,5S)-4-(2,6-difluoro-4-(3-fluoro-1H-pyrrolo[2,3-b]pyridin-4-yl)phenyl)-1-isopropyl-3,5-dimethylpiperidin-4-ol] were, in that order, 11.2 nM, 4.7 nM and 449 nM.
On to `Cc1cc(-c2ccnc3[nH]cc(F)c23)cc(Cl)c1[C@@]1(O)[C@H](C)CN(C2COC2)C[C@@H]1C` [Compound 49, (3R,4s,5S)-4-(2-chloro-4-(3-fluoro-1H-pyrrolo[2,3-b]pyridin-4-yl)-6-methylphenyl)-3,5-dimethyl-1-(oxetan-3-yl)piperidin-4-ol], for which the IC50 on LATS2 turned out to be 428 nM; at LATS1, 697 nM; at AKT it was 125 nM.
